Read-outs that look alike come from different tables or passages of the source.
How the values were obtained:
hBGT1 = molecular target: T1, hBGT1 (Homo sapiens, UniProt P48065); experiment: [3H]GABA uptake assay, CHO cells stably expressing hBGT1; format: cell-based
T1 construct: expressed in transfected cells
T1 sequence (P48065 1-614): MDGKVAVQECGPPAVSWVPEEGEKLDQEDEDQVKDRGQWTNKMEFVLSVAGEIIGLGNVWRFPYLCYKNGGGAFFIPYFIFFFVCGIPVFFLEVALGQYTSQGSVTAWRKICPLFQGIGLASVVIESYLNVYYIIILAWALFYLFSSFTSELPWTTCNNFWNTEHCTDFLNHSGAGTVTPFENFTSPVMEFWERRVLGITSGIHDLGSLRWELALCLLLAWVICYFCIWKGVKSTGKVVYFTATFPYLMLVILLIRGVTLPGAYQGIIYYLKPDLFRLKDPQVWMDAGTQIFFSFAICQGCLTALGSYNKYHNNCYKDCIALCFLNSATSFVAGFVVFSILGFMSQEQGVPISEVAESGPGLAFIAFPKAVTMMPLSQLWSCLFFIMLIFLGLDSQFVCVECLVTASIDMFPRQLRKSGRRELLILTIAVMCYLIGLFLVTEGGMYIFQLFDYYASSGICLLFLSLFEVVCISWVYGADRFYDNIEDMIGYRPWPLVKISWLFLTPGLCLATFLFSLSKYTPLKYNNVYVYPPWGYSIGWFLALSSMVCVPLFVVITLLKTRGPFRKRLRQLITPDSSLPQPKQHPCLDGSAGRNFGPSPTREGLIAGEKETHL
Procedure: All selected compounds were tested for their ability to inhibit human BGT1 (hBGT1) function.
The CHO cells were placed in 96-well plates (approximately 50,000 cells/well) for about 24 h before the experiment. […] After incubation, cells were washed 3 times with 100 μL/well ice-cold assay buffer, 150 μL/well MicroScint20 (PerkinElmer) was subsequently added before the plate was shaken for at least 1 h. The radioactivity of each well of the plate was measured on a TopCount NXT scintillation counter. […] Data presented are the pooled data of at least three independent experiments with three technical replicates if not stated otherwise in figure legends. Concentration–response curves were fitted by nonlinear regression to the sigmoidal concentration–response model with GraphPad Prism v 9.0.

hGAT1 = molecular target: T2, hGAT1 (Homo sapiens, UniProt P30531); experiment: [3H]GABA uptake assay, CHO cells stably expressing hGAT1; format: cell-based
T2 construct: expressed in transfected cells

hGAT2 = molecular target: T3, hGAT2 (Homo sapiens, UniProt Q9NSD5); experiment: [3H]GABA uptake assay, CHO cells stably expressing hGAT2; format: cell-based
T3 construct: expressed in transfected cells
T3 sequence (Q9NSD5 1-602): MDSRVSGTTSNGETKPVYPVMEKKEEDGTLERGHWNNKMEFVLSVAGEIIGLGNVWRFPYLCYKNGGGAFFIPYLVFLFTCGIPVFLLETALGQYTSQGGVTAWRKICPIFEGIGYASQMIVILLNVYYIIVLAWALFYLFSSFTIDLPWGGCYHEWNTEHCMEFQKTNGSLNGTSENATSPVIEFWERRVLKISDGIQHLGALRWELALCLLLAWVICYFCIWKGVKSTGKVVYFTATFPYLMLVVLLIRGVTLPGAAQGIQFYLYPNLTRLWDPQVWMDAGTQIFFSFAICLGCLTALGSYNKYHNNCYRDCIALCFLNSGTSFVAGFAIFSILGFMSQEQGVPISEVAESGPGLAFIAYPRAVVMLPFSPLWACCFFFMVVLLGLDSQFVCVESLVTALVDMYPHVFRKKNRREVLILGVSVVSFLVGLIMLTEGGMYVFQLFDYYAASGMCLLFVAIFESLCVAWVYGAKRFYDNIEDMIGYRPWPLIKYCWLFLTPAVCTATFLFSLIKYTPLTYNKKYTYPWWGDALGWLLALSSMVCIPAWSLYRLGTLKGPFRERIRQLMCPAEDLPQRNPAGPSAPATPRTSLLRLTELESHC

GABAA receptors = experiment: GABAA receptor [3H]-muscimol radioligand binding assay, rat cortical membranes; conditions: rat cortex
Procedure: A 10 mM stock solution of the tested compound was prepared in DMSO. Serial dilutions of the compound were prepared in 96-well microplates in assay buffers using automated pipetting system epMotion 5070 (Eppendorf). Each compound was tested in 8 concentrations from 10^–3 to 10^–10 M (final concentration). Radioligand binding was performed using tissue rat cortex according to the previous procedure.[22] All assays were carried out in duplicates. 50 μL of working solution of the tested compounds, 50 μL of [^3H]-muscimol (final concentration 2.0 nM), and 150 μL of tissue suspension prepared in assay buffer (50 mM Tris-HCl, pH 7.4) were transferred to polypropylene 96-well microplate using 96-well pipetting station Rainin Liquidator (Mettler-Toledo). […] The microplate was covered with sealing tape, mixed, and incubated for 15 min at 4 °C. The reaction was terminated by rapid filtration through GF/B filter mate. Ten rapid washes with 200 μL of 50 mM Tris buffer (4 °C, pH 7.4) were performed using 96-well FilterMate harvester (PerkinElmer). The filter mates were dried at 37 °C in forced air fan incubator and then solid scintillator MeltiLex was melted on filter mates at 90 °C for 4 min. The radioactivity on the filter was measured in MicroBeta TriLux 1450 scintillation counter (PerkinElmer). […]

[1] = tested on: normal human astrocytes (NHA); experiment: Phase-contrast microscopy of normal human astrocytes in culture medium; format: cell-based; conditions: 500 μM in culture medium; 72 h
Procedure: Taking into account the presence of BGT1 and GAT3 transporters in astrocytes, we studied the effect of compound 9 on astrocyte viability, proliferation, and homeostasis. Normal human astrocytes (NHA) were treated with 1–100 μM compound 9 in a culture medium. The WST-1 assay was used to determine the number of metabolically active cells after 24 and 48 h of incubation. […] In the next step, a higher concentration (500 μM) of the compound and a longer incubation time (72 h) were applied, and the cells were examined by phase-contrast microscopy. […] Considering the results shown in Figure 6, compound 9 was not cytotoxic toward human astrocytes under in vitro culture conditions.
Gibco Human Astrocytes (Thermo Fisher Scientific) were maintained in a humidified 5% CO2 incubator at 37 °C. The cells were cultured in Gibco Astrocyte Medium (DMEM with GlutaMAX, N-2 Supplement, and OneShot Fetal Bovine Serum) supplemented with penicillin G (100 U/mL), neomycin (10 μg/mL), and amphotericin B (0.25 μg/mL).

[2] = tested on: SH-SY5Y neuroblastoma cells; conditions: 1 mM MPP+, 24 h
Procedure: The model used mimics certain aspects of neurodegenerative diseases, where GABAergic dysfunction and neuronal death are prominent features. […] The neuroprotection studies were performed to determine the ability of compound 9 to prevent MPP^+ (1-methyl-4-phenylpyridinium) toxicity at a concentration of 1 mM, which was coincubated with compound 9 for 24 h. MPP^+ is a well-established neurotoxin that selectively damages neurons, making it a commonly used agent to model aspects of neurodegenerative conditions in vitro. It induces oxidative stress and mitochondrial dysfunction, leading to cell death. Cell viability was detected by a standard MTS assay.
Neuroprotection studies were performed according to the procedure described previously.[27] In brief, SH-SY5Y CRL-2266 (American Type Culture Collection, Manassas, VG) were seeded in microplate at a concentration of 2.5 × 10^4 cells/well in 100 μL of culture medium and cultured for 24 h at 37 °C and 5% CO2. […] Next, MPP^+ was added at a final concentration of 1 mM and the cells were placed in the incubator. After 24 h of the compound coincubation with MPP^+, the CellTiter 96 AQueous Nonradioactive Cell Proliferation Assay (MTS) was performed. The test was purchased from Promega (Madison, WI). The absorbance was measured using a microplate reader EnSpire (PerkinElmer, Waltham, MA) at 490 nm. All results were shown as mean ± SD. The statistical significances were calculated by GraphPad Prism 6.0 software.

T2 sequence (P30531 whole entry): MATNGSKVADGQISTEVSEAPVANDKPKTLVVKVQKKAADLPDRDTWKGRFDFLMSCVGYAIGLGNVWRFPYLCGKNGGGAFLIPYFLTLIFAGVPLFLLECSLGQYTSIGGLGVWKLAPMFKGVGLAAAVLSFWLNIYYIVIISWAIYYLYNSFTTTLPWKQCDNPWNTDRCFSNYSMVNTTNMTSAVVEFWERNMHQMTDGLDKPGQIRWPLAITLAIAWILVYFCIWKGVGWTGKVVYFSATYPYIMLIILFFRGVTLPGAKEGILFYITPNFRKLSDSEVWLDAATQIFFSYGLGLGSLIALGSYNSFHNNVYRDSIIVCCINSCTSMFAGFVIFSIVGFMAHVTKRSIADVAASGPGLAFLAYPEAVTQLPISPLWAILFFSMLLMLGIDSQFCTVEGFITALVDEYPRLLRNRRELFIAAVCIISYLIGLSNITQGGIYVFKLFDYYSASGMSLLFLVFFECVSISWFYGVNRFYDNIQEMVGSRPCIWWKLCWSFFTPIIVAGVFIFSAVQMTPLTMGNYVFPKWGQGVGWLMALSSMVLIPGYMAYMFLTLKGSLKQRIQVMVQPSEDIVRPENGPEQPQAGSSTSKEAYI

SMILES: NC12CC(C(=O)O)(C1)C2 [Compound 9]
- IC50 (hBGT1): 13.9 µM
- inhibition at 100 µM (hBGT1; CHO, read-out: inhibition of [3H]GABA uptake): 81%
- preference for hBGT1 over hGAT3 (hBGT1; ratio of IC50 values): over 4 fold
- IC50 (hGAT1): > 100 µM
- inhibitory effect on [3H]GABA uptake (hGAT1; 100 μM, CHO cells): no inhibitory effect
- IC50 (hGAT2): > 100 µM
- inhibition at 100 µM (hGAT2; CHO, read-out: inhibition of GABA uptake): ~25%
- displacement of [3H]-muscimol (GABAA receptors; 100 μM): 4%
- Ki ± SEM (GABAA receptors; [3H]-muscimol 2.0 nM): no affinity ^a
- astrocyte morphology and confluency [1]: no changes in astrocyte morphology and confluency
- cell viability compared to MPP+ alone ([2]; 10 μM): increased cell viability
- cell viability compared to MPP+ alone ([2]; 50 μM): significantly increased cell viability
